# Measurements from patent US8735556B2, “Sensitive and generic antibodies and multiple applications” (Randox Laboratories Limited, priority 2011, dated 2014).
# Where two headings read alike, the source gives them in different places.
# Tests used:
# [1] = cited from earlier work
# [2] = test system: antiserum raised to Immunogen II; test: Competitive ELISA, antibody characterisation; assay type: binding, sheep; details: for % Cross-reactivity: CR based on 100% for carbamazepine, IC50 carbamazepine/IC50 CR x 100; for IC50: antiserum raised to Immunogen II, detecting agent derived from Hapten-A, competitive assay format
# Procedure: The antibody titre is evaluated by coating a microtitre plate (Thermo Fisher Scientific NUNC, 468667) with antibody (125 μl/well) in coating buffer (10 mM Tris pH 8.5) at 37° C. for 2 hours. The plate is then washed 4 times over 10 minutes with working strength TBST. 50 μl of sample/standard (Carbamazepine, Sigma C4024) is added to the appropriate wells in triplicate, followed by 75 μl of hapten-HRP conjugate and incubated at 25° C. for 1 hour. The plate is then washed and 125 μl of TMB (Randox, 4380-15) added to each well and left at room temperature for 20 mins in the dark. The reaction is stopped using 125 μl of 0.2M sulphuric acid. The absorbances are read at 450 nm with an ELISA microplate reader (BIO-TEK Instruments, Elx800) and the means calculated. Antibody sensitivity can then be determined. […] The immunogenic mixture (1 ml) was administered to adult sheep on a monthly basis to provide target-specific polyclonal antisera. IgG was extracted from the antisera via caprylic acid/ammonium sulphate precipitation of immunoglobulin. A microtitre plate (Thermo Fisher Scientific NUNC, 468667) was coated with antibody (125 μl/well) in coating buffer (10 mM Tris pH 8.5) at 37° C. for 2 hours. […] The plate was then washed and 125 μl of TMB (Randox, 4380-15) was added to each well and left at room temperature for 20 mins in the dark. The reaction was stopped using 125 μl of 0.2M sulphuric acid. The absorbances were read at 450 nm with an ELISA microplate reader (BIO-TEK Instruments, Elx800) and the means calculated. Antibody specificity and sensitivity were then determined. […] The results of this study are presented in Table 2, cross-reactivity being calculated according to the following formula: % CR=IC50. carbamazepine/IC50. CR×100 […] CR is the concentration of carbamazepine/metabolites/structurally-related molecules that causes 50% displacement of signal.
# [3] = test system: monoclonal antibody of CBZ immunoassay; details: cited from earlier work
# [4] = test system: Siemens ADVIA carbamazepine immunoassay; details: cited from earlier work
# [5] = test system: Beckman Coulter (BC) carbamazepine immunoassay; details: Beckman Coulter BC analyzers; cited from earlier work
# [6] = cited from earlier work; remark: listed apart in the source
# [7] = test system: Roche Diagnostics Online TDM carbamazepine immunoassay; details: at 6 μg/ml of carbamazepine; cited from earlier work
# [8] = test system: Abbott Diagnostics Axsym carbamazepine immunoassay; details: cited from earlier work
Compound,% Cross-reactivity [2],IC50 [2],Cross-reactivity [5] [%],also measured
"NC(=O)N1c2ccccc2C(O)C(O)c2ccccc21 (centres unmarked) [10,11-diOH-CBZ, 10,11-dihydro-10,11-dihydroxycarbamazepine]",14.00%,15.269 ng/mL,,"major urinary excretory product ([1]; of CBZ, urine): 80%; Cross-reactivity [3]: negligible"
"CN(C)CCC=C1c2ccccc2CCc2ccccc21 [Amitriptyline, amitriptyline]",<<1.10%,>>200 ng/ml,18.6,Cross-reactivity [4]: 5.2%
"NC(=O)N1c2ccccc2C=Cc2ccccc21 [CBZ, carbamazepine]",100.00%,2.135 ng/mL,,toxic value ([6]; free carbamazepine): > 4.00 µg/mL; toxic value ([6]; total carbamazepine): greater than 12.00 μg/ml; half-life ([1]; in patients): 18 to 65 h
"NC(=O)N1c2ccccc2C2OC2c2ccccc21 (centres unmarked) [CBZ-E, carbamazepine-10,11-epoxide]",68.30%,3.125 ng/mL,7.4,Cross-reactivity [7]: 14.0%; Cross-reactivity [8]: ≦83.0%; Cross-reactivity [4]: 21.8%
CNCCCN1c2ccccc2CCc2ccccc21 [Desipramine],,,,Cross-reactivity [8]: ≦540.0%
CN1C(=O)CN=C(c2ccccc2)c2cc(Cl)ccc21 [Diazepam],,,4.8,
"NC(=O)N1c2ccccc2CC(O)c2ccccc21 (centres unmarked) [Hapten 10-OH-CBZ, 10,11-dihydro-10-hydroxycarbazepine]",67.40%,3.167 ng/mL,,Cross-reactivity [7]: 1.2%; Cross-reactivity [3]: negligible
"CN(C)CCCN1c2ccccc2CCc2ccccc21 [Imipramine, imipramine]",<<1.10%,>>200 ng/ml,5.6,
CNCCC=C1c2ccccc2CCc2ccccc21 [Nortryptyline],,,17.2,Cross-reactivity [4]: 5.2%
"NC(=O)N1c2ccccc2CC(=O)c2ccccc21 [Oxcarbazepine, oxcarbazepine]",299.00%,0.714 ng/mL,,Cross-reactivity [7]: 1.0%; Cross-reactivity [3]: negligible
c1ccc2c(c1)Nc1ccccc1S2 [Phenothiazine],,,8.6,
